ChEMBL document CHEMBL5614394, “Novel pleuromutilin derivatives conjugated with phenyl-sulfide and boron-containing moieties as potent antibacterial agents against antibiotic-resistant bacteria” (Eur J Med Chem, 2024)
Values after ≈ are worked out from the molar mass of the structure shown. Active and inactive are the calls of the source. The rule behind the calls is not given here.

How the values were obtained:
Enterococcus faecium [1] = test: Antibacterial activity against pleuromutilin-resistant Enterococcus faecium 18SC29-2 harboring (lsa(E)-) genotype assessed as inhibition of visible growth of bacteria incubated for 24 hrs by CLSI protocol based broth-dilution method; format: functional
Enterococcus faecium [2] = test: Antibacterial activity against pleuromutilin-resistant Enterococcus faecium 18FJZ1-1 harboring (lsa(E)+) genotype assessed as inhibition of visible growth of bacteria incubated for 24 hrs by CLSI protocol based broth-dilution method; format: functional
Staphylococcus aureus [3] = test: Antibacterial activity against methicillin-resistant Staphylococcus aureus J1 harboring (lsa(E)+) genotype assessed as inhibition of visible growth of bacteria incubated for 24 hrs by CLSI protocol based broth-dilution method; format: functional
Staphylococcus simulans = test: Antibacterial activity against pleuromutilin-resistant Staphylococcus simulans isolate 55-1 harboring cfr+ genotype assessed as inhibition of visible growth of bacteria incubated for 24 hrs by CLSI protocol based broth-dilution method; format: functional
Staphylococcus aureus [4] = test: Antibacterial activity against Staphylococcus aureus ATCC 29213 assessed as inhibition of visible growth of bacteria incubated for 24 hrs by CLSI protocol based broth-dilution method; format: functional
[5] = tested on: Staphylococcus epidermidis; test: Antibacterial activity against Staphylococcus epidermidis ATCC 12228 assessed as inhibition of visible growth of bacteria incubated for 24 hrs by CLSI protocol based broth-dilution method; format: functional
Staphylococcus aureus [6] = test: Antibacterial activity against Staphylococcus aureus USA 300 assessed as inhibition of visible growth of bacteria incubated for 24 hrs by CLSI protocol based broth-dilution method; format: functional
Staphylococcus aureus [7] = test: Antibacterial activity against methicilin-resistant Staphylococcus aureus isolate 15-2 assessed as inhibition of visible growth of bacteria incubated for 24 hrs by CLSI protocol based broth-dilution method; format: functional
Staphylococcus aureus [8] = test: Antibacterial activity against Staphylococcus aureus ATCC 25923 assessed as inhibition of visible growth of bacteria incubated for 24 hrs by CLSI protocol based broth-dilution method; format: functional
Staphylococcus aureus [9] = test: Antibacterial activity against Staphylococcus aureus ATCC 33591 assessed as inhibition of visible growth of bacteria incubated for 24 hrs by CLSI protocol based broth-dilution method; format: functional
Staphylococcus aureus [10] = test: Antibacterial activity against Staphylococcus aureus ATCC 43300 assessed as inhibition of visible growth of bacteria incubated for 24 hrs by CLSI protocol based broth-dilution method; format: functional
Staphylococcus aureus [11] = test: Antibacterial activity against Staphylococcus aureus ATCC 700788 assessed as inhibition of visible growth of bacteria incubated for 24 hrs by CLSI protocol based broth-dilution method; format: functional
Staphylococcus aureus [12] = test: Antibacterial activity against Staphylococcus aureus ATCC 700699 assessed as inhibition of visible growth of bacteria incubated for 24 hrs by CLSI protocol based broth-dilution method; format: functional
Streptococcus pneumoniae [13] = test: Antibacterial activity against penicillin resistant Streptococcus pneumoniae isolate 20-1 assessed as inhibition of visible growth of bacteria incubated for 24 hrs by CLSI protocol based broth-dilution method; format: functional
Streptococcus pneumoniae [14] = test: Antibacterial activity against penicillin resistant Streptococcus pneumoniae isolate 20-2 assessed as inhibition of visible growth of bacteria incubated for 24 hrs by CLSI protocol based broth-dilution method; format: functional
Streptococcus pneumoniae [15] = test: Antibacterial activity against penicillin resistant Streptococcus pneumoniae isolate 20-3 assessed as inhibition of visible growth of bacteria incubated for 24 hrs by CLSI protocol based broth-dilution method; format: functional
Streptococcus pneumoniae [16] = test: Antibacterial activity against penicillin resistant Streptococcus pneumoniae isolate 20-4 assessed as inhibition of visible growth of bacteria incubated for 24 hrs by CLSI protocol based broth-dilution method; format: functional
Streptococcus pneumoniae [17] = test: Antibacterial activity against penicillin sensitive Streptococcus pneumoniae isolate 20-1 assessed as inhibition of visible growth of bacteria incubated for 24 hrs by CLSI protocol based broth-dilution method; format: functional
[18] = tested on: Staphylococcus epidermidis; test: Antibacterial activity against methicillin-sensitive Staphylococcus epidermidis isolate 20-15 assessed as inhibition of visible growth of bacteria incubated for 24 hrs by CLSI protocol based broth-dilution method; format: functional
Enterococcus faecalis [19] = test: Antibacterial activity against Enterococcus faecalis ATCC 29212 assessed as inhibition of visible growth of bacteria incubated for 24 hrs by CLSI protocol based broth-dilution method; format: functional
Enterococcus faecalis [20] = test: Antibacterial activity against Enterococcus faecalis HB 24-4 assessed as inhibition of visible growth of bacteria incubated for 24 hrs by CLSI protocol based broth-dilution method; format: functional
Escherichia coli = test: Antibacterial activity against Escherichia coli ATCC 25922 assessed as inhibition of visible growth of bacteria incubated for 24 hrs by CLSI protocol based broth-dilution method; format: functional
Acinetobacter baumannii = test: Antibacterial activity against Acinetobacter baumannii ATCC 19606 assessed as inhibition of visible growth of bacteria incubated for 24 hrs by CLSI protocol based broth-dilution method; format: functional
Staphylococcus aureus [21] = test: Antibacterial activity against methicillin-resistant Staphylococcus aureus USA 300 assessed as inhibition of bacterial growth at 1 times of MIC measured upto 24 hrs by time-kill kinetics assay; format: functional, organism-based
Staphylococcus aureus [22] = test: Bactericidal activity against methicillin-resistant Staphylococcus aureus USA 300 assessed as inhibition of bacterial growth at 8 times of MIC by time kill kinetics assay; format: functional, organism-based; settings: time <= 24.0 hrs, TDE = time-dependent effect
[23] = Stability in mouse liver microsomes assessed as drug metabolism at 1 uM measured within 1 hrs in presence of NADPH by LC-MS analysis; format: ADME, Microsome; settings: read-out: Drug metabolism
[24] = Stability in rat liver microsomes assessed as drug metabolism at 1 uM measured within 1 hrs in presence of NADPH by LC-MS analysis; format: ADME, Microsome; settings: read-out: Drug metabolism
[25] = Stability in human liver microsomes assessed as drug metabolism at 1 uM measured within 1 hrs in presence of NADPH by LC-MS analysis; format: ADME, Microsome; settings: read-out: Drug metabolism
Staphylococcus aureus [26] = test: Antibacterial activity against methicillin resistant Staphylococcus aureus USA 300 infected in peritonitis sepsis CD-1 mouse model assessed as mouse survival rate at 40 mg/kg, iv administered as single dose and measured after 7 days relative to control; format: functional; settings: USA 300, 168 h, time 7 day
Staphylococcus aureus [27] = test: Antibacterial activity against methicillin resistant Staphylococcus aureus USA 300 infected in peritonitis sepsis CD-1 mouse model assessed as mouse survival rate at 40 mg/kg, iv administered as double dose with 6 hrs interval and measured after 7 days relative to control; format: functional; settings: USA 300, 168 h, time 7 day
[28] = Acute toxicity in male CD-1 mouse assessed as effect on survival at 40 mg/kg, iv administered as single dose for 7 days; format: organism-based; settings: in vivo, 168 h, time 7 day
Staphylococcus aureus [29] = test: Antibacterial activity against methicillin-resistant Staphylococcus aureus USA 300 assessed as number of colonies with prevalence of spontaneous mutation at 4 times of MIC incubated for 48 hrs by agar dilution assay; format: functional
Staphylococcus aureus [30] = test: Antibacterial activity against methicillin-resistant Staphylococcus aureus USA 300 assessed as number of colonies with prevalence of spontaneous mutation at 8 times of MIC incubated for 48 hrs by agar dilution assay; format: functional
HEK293 = test: Cytotoxicity against HEK293 cells incubated for 48 hrs by MTT assay; format: toxicity, cell-based; settings: human, hek293, 48 h
HUVEC = test: Cytotoxicity against HUVEC cells incubated for 48 hrs by MTT assay; format: toxicity, cell-based; settings: human
[31] = tested on: Staphylococcus epidermidis; test: Antibacterial activity against methicillin-resistant Staphylococcus epidermidis isolate 20-26 assessed as inhibition of visible growth of bacteria incubated for 24 hrs by CLSI protocol based broth-dilution method; format: functional
[32] = tested on: Staphylococcus epidermidis; test: Antibacterial activity against methicillin-resistant Staphylococcus epidermidis isolate 20-27 assessed as inhibition of visible growth of bacteria incubated for 24 hrs by CLSI protocol based broth-dilution method; format: functional
[33] = tested on: Staphylococcus epidermidis; test: Antibacterial activity against methicillin-resistant Staphylococcus epidermidis isolate 20-28 assessed as inhibition of visible growth of bacteria incubated for 24 hrs by CLSI protocol based broth-dilution method; format: functional
[34] = tested on: Staphylococcus epidermidis; test: Antibacterial activity against methicillin-resistant Staphylococcus epidermidis isolate 20-29 assessed as inhibition of visible growth of bacteria incubated for 24 hrs by CLSI protocol based broth-dilution method; format: functional

SMILES	MIC (Enterococcus faecium [1]) [µg/mL]	MIC (Enterococcus faecium [2]) [µg/mL]	MIC (Staphylococcus aureus [3]) [µg/mL]	MIC (Staphylococcus simulans) [µg/mL]	MIC (Staphylococcus aureus [4]) [µg/mL]	MIC [5] [µg/mL]	MIC (Staphylococcus aureus [6]) [µg/mL]	MIC (Staphylococcus aureus [7]) [µg/mL]	MIC (Staphylococcus aureus [8]) [µg/mL]	MIC (Staphylococcus aureus [9]) [µg/mL]	MIC (Staphylococcus aureus [10]) [µg/mL]	MIC (Staphylococcus aureus [11]) [µg/mL]	MIC (Staphylococcus aureus [12]) [µg/mL]	MIC (Streptococcus pneumoniae [13]) [µg/mL]	MIC (Streptococcus pneumoniae [14]) [µg/mL]	MIC (Streptococcus pneumoniae [15]) [µg/mL]	MIC (Streptococcus pneumoniae [16]) [µg/mL]	MIC (Streptococcus pneumoniae [17]) [µg/mL]	MIC [18] [µg/mL]	MIC (Enterococcus faecalis [19]) [µg/mL]	also measured
C=C[C@]1(C)C[C@@H](OC(=O)CSC(C)(C)CNC(=O)[C@H](N)C(C)C)[C@]2(C)[C@H](C)CC[C@]3(CCC(=O)[C@H]32)[C@@H](C)[C@@H]1O [VALNEMULIN]	≤ 0.06	8 (≈ 14.2 µM)	> 32	8 (≈ 14.2 µM)	–	–	–	–	–	–	–	–	–	–	–	–	–	–	–	–	–
C=C[C@]1(C)C[C@@H](OC(=O)CSC(C)(C)CNC(=O)c2ccc3c(c2)B(O)OC3)[C@]2(C)[C@H](C)CC[C@]3(CCC(=O)[C@H]32)[C@@H](C)[C@@H]1O	0.125 (≈ 0.2 µM)	8 (≈ 12.8 µM)	16 (≈ 25.6 µM)	2 (≈ 3.2 µM)	0.063 (≈ 0.101 µM)	0.063 (≈ 0.101 µM)	–	–	–	–	–	–	–	–	–	–	–	–	–	–	–
C=C[C@]1(C)C[C@@H](OC(=O)CSc2cccc(NC(=O)c3ccc4c(c3)B(O)OC4)c2)[C@]2(C)[C@H](C)CC[C@]3(CCC(=O)[C@H]32)[C@@H](C)[C@@H]1O	≤ 0.03	2 (≈ 3.1 µM)	4 (≈ 6.2 µM)	1 (≈ 1.55 µM)	≤ 0.016	0.016 (≈ 0.0248 µM)	≤ 0.03	≤ 0.03	≤ 0.03	≤ 0.03	≤ 0.03	≤ 0.03	≤ 0.03	0.06 (≈ 0.0929 µM)	0.06 (≈ 0.0929 µM)	≤ 0.03	0.06 (≈ 0.0929 µM)	0.06 (≈ 0.0929 µM)	≤ 0.03	1 (≈ 1.55 µM)	MIC (Enterococcus faecalis [20]): 0.25 µg/mL (≈ 0.387 µM); MIC (Escherichia coli): 32 µg/mL (≈ 49.6 µM); MIC (Acinetobacter baumannii): > 64 µg/mL; Activity (Staphylococcus aureus [21]): Active; Activity (Staphylococcus aureus [22]): Tde; metabolised at 1 h, 1 µM [23]: 67.2%; metabolised at 1 h, 1 µM [24]: 52.7%; metabolised at 1 h, 1 µM [25]: 51.1%; survival at 40 mg/kg (Staphylococcus aureus [26]): 17%; survival at 40 mg/kg (Staphylococcus aureus [27]): 50%; Activity [28]: Non-Toxic; Activity (Staphylococcus aureus [29]): <4.7 10^-11No_unit; Activity (Staphylococcus aureus [30]): <4.7 10^-11No_unit; Activity (HEK293): Non-Toxic; Activity (HUVEC): Non-Toxic
C=C[C@]1(C)C[C@@H](OC(=O)CS[C@@H]2CC[C@@H](N)C[C@H]2O)[C@]2(C)[C@H](C)CC[C@]3(CCC(=O)[C@H]32)[C@@H](C)[C@@H]1O [LEFAMULIN]	–	–	–	–	0.25 (≈ 0.492 µM)	–	0.25 (≈ 0.492 µM)	0.5 (≈ 0.985 µM)	≤ 0.25	0.25 (≈ 0.492 µM)	0.25 (≈ 0.492 µM)	0.5 (≈ 0.985 µM)	0.25 (≈ 0.492 µM)	1 (≈ 1.97 µM)	1 (≈ 1.97 µM)	1 (≈ 1.97 µM)	1 (≈ 1.97 µM)	1 (≈ 1.97 µM)	0.25 (≈ 0.492 µM)	32 (≈ 63 µM)	MIC [31]: 0.5 µg/mL (≈ 0.985 µM); MIC [32]: 0.25 µg/mL (≈ 0.492 µM); MIC [33]: 0.25 µg/mL (≈ 0.492 µM); MIC [34]: 0.125 µg/mL (≈ 0.246 µM); MIC (Enterococcus faecalis [20]): 2 µg/mL (≈ 3.94 µM); MIC (Escherichia coli): 8 µg/mL (≈ 15.8 µM); MIC (Acinetobacter baumannii): > 64 µg/mL; metabolised at 1 h, 1 µM [23]: 41.4%; metabolised at 1 h, 1 µM [24]: 80.2%; metabolised at 1 h, 1 µM [25]: 84%; survival at 40 mg/kg (Staphylococcus aureus [26]): 33%
